{
  "source": "patent US4988687A",
  "about": "“Cephalosporin derivatives, and antibacterial agents” (priority 1986, dated 1991)",
  "key": {"E. cloacae Nek 39": {"test_system": "E. cloacae Nek 39", "assay": "agar plate dilution method, MIC against E. cloacae Nek 39", "type": "cell-based", "conditions": "Enterobacter cloacae, NEK39; E. cloacae Nek 39 (lactamase-producing strain); 10^6 CFU/ml, 37° C., 16 hours; read-out: Minimum Inhibitory Concentration (MIC)", "description": "(§1) The in vitro antibacterial activities of the compounds of the present invention against various microorganisms, were measured by the following agar plate dilution method. One platinum loopfull of each test microorganism incubated overnight in Mueller Hinton broth, was inoculated to Mueller Hinton agar (inoculum size: 10^6 CFU/ml) Such culture media containing various antibiotics in various concentrations were prepared After incubation at 37° C. for 16 hours, the minimum inhibitory concentrations (MIC: μg/ml) were measured. As comparative compounds, cefotaxime, oeftazidime and the compounds disclosed in Example 2 of Japanese Unexamined Patent Publication No. 215690/1985 e.g. sodium 7-[2-(2-aminothiazol-4-yl)-2-ethoxyiminoacetamido]-3-(1-carboxylatemethylpyridinio-4-yl)thiomethyl-3-cephem-4-carboxylate (hereinafter referred to simply as \"Reference Example A\") were employed."}, "K. pneumoniae PCI-602": {"test_system": "K. pneumoniae PCI-602", "assay": "agar plate dilution method, MIC against K. pneumoniae PCI-602", "type": "cell-based", "conditions": "Klebsiella pneumoniae, PCI602, 16 h, read-out: Minimum Inhibitory Concentration (MIC)", "description": "as §1"}, "A. calcoaceticus No. 4": {"test_system": "A. calcoaceticus No. 4", "assay": "agar plate dilution method, MIC against A. calcoaceticus No. 4", "type": "cell-based", "conditions": "Acinetobacter calcoaceticus; A. calcoaceticus No. 4; 10^6 CFU/ml, 37° C., 16 hours; read-out: Minimum Inhibitory Concentration (MIC)", "description": "as §1"}, "Ps. cepacia 23": {"test_system": "Ps. cepacia 23", "assay": "agar plate dilution method, MIC against Ps. cepacia 23", "type": "cell-based, Pseudomonas cepacia", "conditions": "Burkholderia cepacia, 23, 16 h, read-out: Minimum Inhibitory Concentration (MIC)", "description": "as §1"}, "C. freundii GN346/16": {"test_system": "C. freundii GN346/16", "assay": "agar plate dilution method, MIC against C. freundii GN346/16", "type": "cell-based", "conditions": "Citrobacter freundii; C. freundii GN346/16; 10^6 CFU/ml, 37° C., 16 hours; read-out: Minimum Inhibitory Concentration (MIC)", "description": "as §1"}, "E. coli CSH2 (RK1)": {"test_system": "E. coli CSH2 (RK1)", "assay": "agar plate dilution method, MIC against E. coli CSH2 (RK1)", "type": "cell-based", "conditions": "Escherichia coli, 16 h, read-out: Minimum Inhibitory Concentration (MIC)", "description": "as §1"}, "Ps. aeruginosa IFO3445": {"test_system": "Ps. aeruginosa IFO3445", "assay": "agar plate dilution method, MIC against Ps. aeruginosa IFO3445", "type": "cell-based", "conditions": "Pseudomonas aeruginosa; Ps. aeruginosa IFO3445; 10^6 CFU/ml, 37° C., 16 hours; read-out: Minimum Inhibitory Concentration (MIC)", "description": "as §1"}, "E. coli GN5482": {"test_system": "E. coli GN5482", "assay": "agar plate dilution method, MIC against E. coli GN5482", "type": "cell-based", "conditions": "Escherichia coli; E. coli GN5482 (lactamase-producing strain); 10^6 CFU/ml, 37° C., 16 hours; read-out: Minimum Inhibitory Concentration (MIC)", "description": "as §1"}, "K. oxytoca GN10650": {"test_system": "K. oxytoca GN10650", "assay": "agar plate dilution method, MIC against K. oxytoca GN10650", "type": "cell-based", "conditions": "Klebsiella oxytoca; K. oxytoca GN10650 (lactamase-producing strain); 10^6 CFU/ml, 37° C., 16 hours; read-out: Minimum Inhibitory Concentration (MIC)", "description": "as §1"}, "M. morganii GN5407": {"test_system": "M. morganii GN5407", "assay": "agar plate dilution method, MIC against M. morganii GN5407", "type": "cell-based", "conditions": "Morganella morganii; M. morganii GN5407 (lactamase-producing strain); 10^6 CFU/ml, 37° C., 16 hours; read-out: Minimum Inhibitory Concentration (MIC)", "description": "as §1"}, "K. pneumoniae No. 42": {"test_system": "K. pneumoniae No. 42", "assay": "agar plate dilution method, MIC against K. pneumoniae No. 42", "type": "cell-based", "conditions": "Klebsiella pneumoniae; K. pneumoniae No. 42 (lactamase-producing strain); 10^6 CFU/ml, 37° C., 16 hours; read-out: Minimum Inhibitory Concentration (MIC)", "description": "as §1"}, "S. marcescens No. 16-2": {"test_system": "S. marcescens No. 16-2", "assay": "agar plate dilution method, MIC against S. marcescens No. 16-2", "type": "cell-based", "conditions": "Serratia marcescens, NO.162; S. marcescens No. 16-2 (lactamase-producing strain); 10^6 CFU/ml, 37° C., 16 hours; read-out: Minimum Inhibitory Concentration (MIC)", "description": "as §1"}, "P. vulgaris HX-19": {"test_system": "P. vulgaris HX-19", "assay": "agar plate dilution method, MIC against P. vulgaris HX-19", "type": "cell-based", "conditions": "Proteus vulgaris, HX19, 16 h, read-out: Minimum Inhibitory Concentration (MIC)", "description": "as §1"}, "E. cloacae 963": {"test_system": "E. cloacae 963", "assay": "agar plate dilution method, MIC against E. cloacae 963", "type": "cell-based", "conditions": "Enterobacter cloacae; E. cloacae 963; 10^6 CFU/ml, 37° C., 16 hours; read-out: Minimum Inhibitory Concentration (MIC)", "description": "as §1"}, "Ps. maltophilia GN 12873": {"test_system": "Ps. maltophilia GN 12873", "assay": "agar plate dilution method, MIC against Ps. maltophilia GN 12873", "type": "cell-based, Pseudomonas maltophilia", "conditions": "Stenotrophomonas maltophilia, GN12873; Ps. maltophilia GN 12873 (lactamase-producing strain); 10^6 CFU/ml, 37° C., 16 hours; read-out: Minimum Inhibitory Concentration (MIC)", "description": "as §1"}, "E. coli NIHJ JC2": {"test_system": "E. coli NIHJ JC2", "assay": "agar plate dilution method, MIC against E. coli NIHJ JC2", "type": "cell-based", "conditions": "Escherichia coli, NIHJJC2; E. coli NIHJ JC2; 10^6 CFU/ml, 37° C., 16 hours; read-out: Minimum Inhibitory Concentration (MIC)", "description": "as §1"}, "S. aureus JS1": {"test_system": "S. aureus JS1", "assay": "agar plate dilution method, MIC against S. aureus JS1", "type": "cell-based", "conditions": "Staphylococcus aureus, JS1, 16 h, read-out: Minimum Inhibitory Concentration (MIC)", "description": "as §1"}, "S. aureus 209P NIHJ-JC1": {"test_system": "S. aureus 209P NIHJ-JC1", "assay": "agar plate dilution method, MIC against S. aureus 209P NIHJ-JC1", "type": "cell-based", "conditions": "Staphylococcus aureus; S. aureus 209P NIHJ-JC1; 10^6 CFU/ml, Mueller Hinton agar, 37° C., 16 hours; read-out: Minimum Inhibitory Concentration (MIC)", "description": "as §1"}, "[1]": {"test_system": "sensitive and resistant Gram-positive bacteria and Gram-negative bacteria particularly glucose non-fermentative Gram-negative rods", "assay": "antibacterial activity and spectrum (in words)", "type": "cell-based", "conditions": "in vitro", "description": "as §1"}, "C. freundii GN346": {"test_system": "C. freundii GN346", "assay": "agar plate dilution method, MIC against C. freundii GN346", "type": "cell-based", "conditions": "Citrobacter freundii; C. freundii GN346 (lactamase-producing strain); 10^6 CFU/ml, 37° C., 16 hours; read-out: Minimum Inhibitory Concentration (MIC)", "description": "as §1"}, "P. vulgaris No. 33": {"test_system": "P. vulgaris No. 33", "assay": "agar plate dilution method, MIC against P. vulgaris No. 33", "type": "cell-based", "conditions": "Proteus vulgaris; P. vulgaris No. 33 (lactamase-producing strain); 10^6 CFU/ml, 37° C., 16 hours; read-out: Minimum Inhibitory Concentration (MIC)", "description": "as §1"}, "E. coli CSH(RE45)": {"test_system": "E. coli CSH(RE45)", "assay": "agar plate dilution method, MIC against E. coli CSH(RE45)", "type": "cell-based", "conditions": "Escherichia coli, 16 h, read-out: Minimum Inhibitory Concentration (MIC)", "description": "as §1"}, "S. epidermidis IAM12012": {"test_system": "S. epidermidis IAM12012", "assay": "agar plate dilution method, MIC against S. epidermidis IAM12012", "type": "cell-based", "conditions": "Staphylococcus epidermidis, IAM12012, 16 h, read-out: Minimum Inhibitory Concentration (MIC)", "description": "as §1"}, "S. marcescens IAM 1184": {"test_system": "S. marcescens IAM 1184", "assay": "agar plate dilution method, MIC against S. marcescens IAM 1184", "type": "cell-based", "conditions": "Serratia marcescens, IAM1184; S. marcescens IAM 1184; 10^6 CFU/ml, 37° C., 16 hours; read-out: Minimum Inhibitory Concentration (MIC)", "description": "as §1"}, "Ps. aeruginosa AK 109": {"test_system": "Ps. aeruginosa AK 109", "assay": "agar plate dilution method, MIC against Ps. aeruginosa AK 109", "type": "cell-based", "conditions": "Pseudomonas aeruginosa, AK109; Ps. aeruginosa AK 109; 10^6 CFU/ml, 37° C., 16 hours; read-out: Minimum Inhibitory Concentration (MIC)", "description": "as §1"}, "M. luteus ATCC9341": {"test_system": "M. luteus ATCC9341", "assay": "agar plate dilution method, MIC against M. luteus ATCC9341", "type": "cell-based", "conditions": "Micrococcus luteus; M. luteus ATCC9341; 10^6 CFU/ml, 37° C., 16 hours; read-out: Minimum Inhibitory Concentration (MIC)", "description": "as §1"}, "S. aureus BB5703": {"test_system": "S. aureus BB5703", "assay": "agar plate dilution method, MIC against S. aureus BB5703", "type": "cell-based", "conditions": "Staphylococcus aureus, BB5703, 16 h, read-out: Minimum Inhibitory Concentration (MIC)", "description": "as §1"}, "Ps. aeruginosa AKR17": {"test_system": "Ps. aeruginosa AKR17", "assay": "agar plate dilution method, MIC against Ps. aeruginosa AKR17", "type": "cell-based", "conditions": "Pseudomonas aeruginosa, AKR17, 16 h, read-out: Minimum Inhibitory Concentration (MIC)", "description": "as §1"}},
  "data": [
    {"compound": "Nc1nc(C(=NOC(C(=O)O)c2ccc(O)c(O)c2)C(=O)NC2C(=O)N3C(C(=O)[O-])=C(CSc4cc[n+](CC(=O)O)cc4)CSC23)cs1", "note": "(stereo not drawn) [Example 5, 7-[2-(2-aminothiazol-4-yl)-2-(α-carboxy-3,4-dihydroxybenzyloxyimino)acetamido]-3-(1-carboxymethylpyridinio-4-yl)thiomethyl-3-cephem-4-carboxylate (syn-isomer)]", "values": [
      {"measurement": "MIC", "setting": "E. cloacae Nek 39", "value": 0.2, "unit": "µg/mL"},
      {"measurement": "MIC", "setting": "K. pneumoniae PCI-602", "value": "< 0.006", "unit": "µg/mL"},
      {"measurement": "MIC", "setting": "A. calcoaceticus No. 4", "value": 0.2, "unit": "µg/mL"},
      {"measurement": "MIC", "setting": "Ps. cepacia 23", "value": "< 0.006", "unit": "µg/mL"},
      {"measurement": "MIC", "setting": "C. freundii GN346/16", "value": 0.39, "unit": "µg/mL"},
      {"measurement": "MIC", "setting": "E. coli CSH2 (RK1)", "value": 0.05, "unit": "µg/mL"},
      {"measurement": "MIC", "setting": "Ps. aeruginosa IFO3445", "value": 0.39, "unit": "µg/mL"},
      {"measurement": "MIC", "setting": "E. coli GN5482", "value": 0.2, "unit": "µg/mL"},
      {"measurement": "MIC", "setting": "K. oxytoca GN10650", "value": 0.05, "unit": "µg/mL"},
      {"measurement": "MIC", "setting": "M. morganii GN5407", "value": 0.1, "unit": "µg/mL"},
      {"measurement": "MIC", "setting": "K. pneumoniae No. 42", "value": 0.2, "unit": "µg/mL"},
      {"measurement": "MIC", "setting": "S. marcescens No. 16-2", "value": 0.78, "unit": "µg/mL"},
      {"measurement": "MIC", "setting": "P. vulgaris HX-19", "value": 0.025, "unit": "µg/mL"},
      {"measurement": "MIC", "setting": "E. cloacae 963", "value": 0.1, "unit": "µg/mL"},
      {"measurement": "MIC", "setting": "Ps. maltophilia GN 12873", "value": "> 100", "unit": "µg/mL"},
      {"measurement": "MIC", "setting": "E. coli NIHJ JC2", "value": 0.1, "unit": "µg/mL"},
      {"measurement": "MIC", "setting": "S. aureus JS1", "value": 6.25, "unit": "µg/mL"},
      {"measurement": "MIC", "setting": "S. aureus 209P NIHJ-JC1", "value": 0.78, "unit": "µg/mL"},
      {"measurement": "antibacterial activities and antibacterial spectrum (in words)", "setting": "[1]", "value": "excellent antibacterial activities and a broad antibacterial spectrum"},
      {"measurement": "MIC", "setting": "C. freundii GN346", "value": 25, "unit": "µg/mL"},
      {"measurement": "MIC", "setting": "P. vulgaris No. 33", "value": 0.05, "unit": "µg/mL"},
      {"measurement": "MIC", "setting": "E. coli CSH(RE45)", "value": 0.05, "unit": "µg/mL"},
      {"measurement": "MIC", "setting": "S. epidermidis IAM12012", "value": 1.56, "unit": "µg/mL"},
      {"measurement": "MIC", "setting": "S. marcescens IAM 1184", "value": 0.1, "unit": "µg/mL"},
      {"measurement": "MIC", "setting": "Ps. aeruginosa AK 109", "value": 0.78, "unit": "µg/mL"},
      {"measurement": "MIC", "setting": "M. luteus ATCC9341", "value": 0.78, "unit": "µg/mL"},
      {"measurement": "MIC", "setting": "S. aureus BB5703", "value": 3.12, "unit": "µg/mL"},
      {"measurement": "MIC", "setting": "Ps. aeruginosa AKR17", "value": 1.56, "unit": "µg/mL"}
    ]}
  ]
}
